# Laboratory results: paper PMC8325362, “Drugs repurposed for COVID-19 by virtual screening of 6,218 drugs and cell-based assay” (Proceedings of the National Academy of Sciences of the …, 2021)
# Like-named read-outs stand apart in the source and are kept apart here.
# What was measured:
# SARS-CoV-2 [1] = assay: microbe, parasite or virus in culture; type: cell-based
# SARS-CoV-2 [2] = assay: microbe, parasite or virus in culture; conditions: Severe acute respiratory syndrome coronavirus 2, Vero, 24 h, read-out: SARS-CoV-2 IC50 in Vero cells
# in vitro [3] = conditions: African green monkey, Relative cell viability (%)
# [4] = Cytotoxicity (CC50) in Vero cells; conditions: African green monkey
# [5] = Cytotoxicity (CC50) in Calu-3 cells; conditions: human
# SARS-CoV-2 [6] = assay: Checkerboard drug combination assay, SARS-CoV-2 inhibition in Vero cells; type: cell-based; conditions: Severe acute respiratory syndrome coronavirus 2, Vero, read-out: Relative viral inhibition (%); for inhibition at 0.69 µM: Tipifarnib 0.69 μM; for inhibition at 1.38 µM: Tipifarnib 1.38 μM; for inhibition at 2.75 µM: Tipifarnib 2.75 μM; for inhibition at 5.5 µM: Tipifarnib 5.50 μM; for inhibition at 11 µM: Tipifarnib 11.00 μM; for inhibition at 22.01 µM: Tipifarnib 22.01 μM; for inhibition at 44.02 µM: Tipifarnib 44.02 μM; for inhibition at 0.03 µM: Omipalisib 0.03 μM; for inhibition at 0.06 µM: Omipalisib 0.06 μM; for inhibition at 0.12 µM: Omipalisib 0.12 μM; for inhibition at 0.25 µM: Omipalisib 0.25 μM; for inhibition at 0.49 µM: Omipalisib 0.49 μM; for inhibition at 0.98 µM: Omipalisib 0.98 μM; for inhibition at 1.97 µM: Omipalisib 1.97 μM
# [7] = human, cited from earlier work
# in vitro [8] = conditions: African green monkey
# in vitro [9] = conditions: human
# SARS-CoV-2 [10] = conditions: for antiviral activity against SARS-CoV-2 in Vero cells: assay validation with reference drugs
# SARS-CoV-2 [11] = assay: in vitro; conditions: African green monkey
# M^pro = M^pro (Severe acute respiratory syndrome coronavirus 2, UniProt P0DTD1); type: biochemical; conditions: FRET assay, 0.1 to 50 μM
# [12] = Severe acute respiratory syndrome coronavirus 2, Calu-3, 24 h, Calu-3 cells, MOI 0.5, 24 h
# [13] = read-out: Approx. Cmax (maximum serum concentration), oral
smiles,measurement,setting,value
Cn1cncc1[C@@](N)(c1ccc(Cl)cc1)c1ccc2c(c1)c(-c1cccc(Cl)c1)cc(=O)n2C [Tipifarnib],IC50,SARS-CoV-2 [1]; [12],4.57 µM
same,IC50,SARS-CoV-2 [2],11 µM
same,viability,"in vitro [3]; Fig. 4E, Tipifarnib 0.69 μM, Omipalisib 0.00 μM",90%
same,viability,"in vitro [3]; Fig. 4E, Tipifarnib 1.38 μM, Omipalisib 0.00 μM",91%
same,viability,"in vitro [3]; Fig. 4E, Tipifarnib 2.75 μM, Omipalisib 0.00 μM",90%
same,viability,"in vitro [3]; Fig. 4E, Tipifarnib 5.50 μM, Omipalisib 0.00 μM",91%
same,viability,"in vitro [3]; Fig. 4E, Tipifarnib 11.00 μM, Omipalisib 0.00 μM",76%
same,viability,"in vitro [3]; Fig. 4E, Tipifarnib 22.01 μM, Omipalisib 0.00 μM",7%
same,viability,"in vitro [3]; Fig. 4E, Tipifarnib 44.02 μM, Omipalisib 0.00 μM",0%
same,viability,"in vitro [3]; Fig. 4H, Tipifarnib 0.69 μM, Remdesivir 0.00 μM",91%
same,viability,"in vitro [3]; Fig. 4H, Tipifarnib 1.38 μM, Remdesivir 0.00 μM",90%
same,viability,"in vitro [3]; Fig. 4H, Tipifarnib 2.75 μM, Remdesivir 0.00 μM",89%
same,viability,"in vitro [3]; Fig. 4H, Tipifarnib 5.50 μM, Remdesivir 0.00 μM",88%
same,viability,"in vitro [3]; Fig. 4H, Tipifarnib 11.00 μM, Remdesivir 0.00 μM",80%
same,viability,"in vitro [3]; Fig. 4H, Tipifarnib 22.01 μM, Remdesivir 0.00 μM",6%
same,viability,"in vitro [3]; Fig. 4H, Tipifarnib 44.02 μM, Remdesivir 0.00 μM",0%
same,CC50 at 24 h,[4],16.6 µM
same,CC50 at 24 h,[5],> 50 µM
same,inhibition at 0.69 µM,"SARS-CoV-2 [6]; Fig. 4D, Omipalisib 0.00 μM",4%
same,inhibition at 1.38 µM,"SARS-CoV-2 [6]; Fig. 4D, Omipalisib 0.00 μM",4%
same,inhibition at 2.75 µM,"SARS-CoV-2 [6]; Fig. 4D, Omipalisib 0.00 μM",6%
same,inhibition at 5.5 µM,"SARS-CoV-2 [6]; Fig. 4D, Omipalisib 0.00 μM",11%
same,inhibition at 11 µM,"SARS-CoV-2 [6]; Fig. 4D, Omipalisib 0.00 μM",91%
same,inhibition at 22.01 µM,"SARS-CoV-2 [6]; Fig. 4D, Omipalisib 0.00 μM",100%
same,inhibition at 44.02 µM,"SARS-CoV-2 [6]; Fig. 4D, Omipalisib 0.00 μM",92%
same,inhibition at 0.69 µM,"SARS-CoV-2 [6]; Fig. 4G, Remdesivir 0.00 μM",0%
same,inhibition at 1.38 µM,"SARS-CoV-2 [6]; Fig. 4G, Remdesivir 0.00 μM",0%
same,inhibition at 2.75 µM,"SARS-CoV-2 [6]; Fig. 4G, Remdesivir 0.00 μM",0%
same,inhibition at 5.5 µM,"SARS-CoV-2 [6]; Fig. 4G, Remdesivir 0.00 μM",10%
same,inhibition at 11 µM,"SARS-CoV-2 [6]; Fig. 4G, Remdesivir 0.00 μM",93%
same,inhibition at 22.01 µM,"SARS-CoV-2 [6]; Fig. 4G, Remdesivir 0.00 μM",100%
same,inhibition at 44.02 µM,"SARS-CoV-2 [6]; Fig. 4G, Remdesivir 0.00 μM",87%
same,Cmax,[7]; [13],~8600 nM
Cc1cc(O)c2c(=O)c3c(O)cc(O)c4c5c(O)cc(O)c6c(=O)c7c(O)cc(C)c8c1c2c(c34)c(c78)c65 [Hypericin],IC50,"SARS-CoV-2 [1]; Severe acute respiratory syndrome coronavirus 2, Calu-3, 24 h, read-out: SARS-CoV-2 IC50 in Calu-3 cells",> 50 µM
same,IC50,SARS-CoV-2 [2],19.3 µM
same,CC50,in vitro [8],> 50 µM
same,CC50,in vitro [9],> 50 µM
same,Cmax,[7]; [13],~8 nM
O=C(Nc1cc(C(F)(F)F)cc(C(F)(F)F)c1)Nc1ccc(Br)cc1-c1nnn[nH]1 [NS-3728],IC50,SARS-CoV-2 [1]; [12],> 50 µM
same,IC50,SARS-CoV-2 [2],28.4 µM
same,CC50 at 24 h,in vitro [8],> 50 µM
same,CC50 at 24 h,in vitro [9],> 50 µM
same,Cmax,"[7]; in vivo, po",~36500 nM
Cc1cccc(C)c1OCC(=O)N[C@@H](Cc1ccccc1)[C@@H](O)C[C@H](Cc1ccccc1)NC(=O)[C@H](C(C)C)N1CCCNC1=O [lopinavir],antiviral activity against SARS-CoV-2 in Vero cells,SARS-CoV-2 [10],showed antiviral activity
COc1ncc(-c2ccc3nccc(-c4ccnnc4)c3c2)cc1NS(=O)(=O)c1ccc(F)cc1F [Omipalisib],fold higher activity than remdesivir,SARS-CoV-2 [1]; Calu-3,200 fold
same,IC50,"SARS-CoV-2 [1]; Calu-3 cells, MOI 0.5, 24 h",0.01 µM
same,fold lower IC50 in Calu-3 cells than in Vero cells,SARS-CoV-2 [1]; Calu-3 vs Vero,49 fold
same,IC50,SARS-CoV-2 [1]; [12],0.01 µM
same,selectivity ratio,SARS-CoV-2 [11],62.8
same,IC50,SARS-CoV-2 [2],0.49 µM
same,CC50 at 24 h,in vitro [8],30.8 µM
same,viability,"in vitro [3]; Fig. 4B, Omipalisib 0.03 μM, Remdesivir 0.00 μM",82%
same,viability,"in vitro [3]; Fig. 4B, Omipalisib 0.06 μM, Remdesivir 0.00 μM",82%
same,viability,"in vitro [3]; Fig. 4B, Omipalisib 0.12 μM, Remdesivir 0.00 μM",80%
same,viability,"in vitro [3]; Fig. 4B, Omipalisib 0.25 μM, Remdesivir 0.00 μM",81%
same,viability,"in vitro [3]; Fig. 4B, Omipalisib 0.49 μM, Remdesivir 0.00 μM",80%
same,viability,"in vitro [3]; Fig. 4B, Omipalisib 0.98 μM, Remdesivir 0.00 μM",81%
same,viability,"in vitro [3]; Fig. 4B, Omipalisib 1.97 μM, Remdesivir 0.00 μM",80%
same,viability,"in vitro [3]; Fig. 4E, Tipifarnib 0.00 μM, Omipalisib 0.03 μM",87%
same,viability,"in vitro [3]; Fig. 4E, Tipifarnib 0.00 μM, Omipalisib 0.06 μM",89%
same,viability,"in vitro [3]; Fig. 4E, Tipifarnib 0.00 μM, Omipalisib 0.12 μM",88%
same,viability,"in vitro [3]; Fig. 4E, Tipifarnib 0.00 μM, Omipalisib 0.25 μM",88%
same,viability,"in vitro [3]; Fig. 4E, Tipifarnib 0.00 μM, Omipalisib 0.49 μM",88%
same,viability,"in vitro [3]; Fig. 4E, Tipifarnib 0.00 μM, Omipalisib 0.98 μM",87%
same,viability,"in vitro [3]; Fig. 4E, Tipifarnib 0.00 μM, Omipalisib 1.97 μM",84%
same,inhibitory activity against M^pro,M^pro,showed no inhibitory activity
same,fold higher antiviral activity than remdesivir,SARS-CoV-2 [10]; Vero cells,20 fold
same,inhibition at 0.03 µM,"SARS-CoV-2 [6]; Fig. 4A, Remdesivir 0.00 μM",6%
same,inhibition at 0.06 µM,"SARS-CoV-2 [6]; Fig. 4A, Remdesivir 0.00 μM",6%
same,inhibition at 0.12 µM,"SARS-CoV-2 [6]; Fig. 4A, Remdesivir 0.00 μM",15%
same,inhibition at 0.25 µM,"SARS-CoV-2 [6]; Fig. 4A, Remdesivir 0.00 μM",29%
same,inhibition at 0.49 µM,"SARS-CoV-2 [6]; Fig. 4A, Remdesivir 0.00 μM",63%
same,inhibition at 0.98 µM,"SARS-CoV-2 [6]; Fig. 4A, Remdesivir 0.00 μM",73%
same,inhibition at 1.97 µM,"SARS-CoV-2 [6]; Fig. 4A, Remdesivir 0.00 μM",78%
same,inhibition at 0.03 µM,"SARS-CoV-2 [6]; Fig. 4D, Tipifarnib 0.00 μM",11%
same,inhibition at 0.06 µM,"SARS-CoV-2 [6]; Fig. 4D, Tipifarnib 0.00 μM",31%
same,inhibition at 0.12 µM,"SARS-CoV-2 [6]; Fig. 4D, Tipifarnib 0.00 μM",60%
same,inhibition at 0.25 µM,"SARS-CoV-2 [6]; Fig. 4D, Tipifarnib 0.00 μM",90%
same,inhibition at 0.49 µM,"SARS-CoV-2 [6]; Fig. 4D, Tipifarnib 0.00 μM",93%
same,inhibition at 0.98 µM,"SARS-CoV-2 [6]; Fig. 4D, Tipifarnib 0.00 μM",95%
same,inhibition at 1.97 µM,"SARS-CoV-2 [6]; Fig. 4D, Tipifarnib 0.00 μM",95%
same,CC50 at 24 h,in vitro [9],> 0.02 µM
same,Cmax,"[7]; in vivo, po",~300 nM
CCN1CCN(c2cc(-c3ccc(F)cc3)c3c(n2)CCCCCC3)CC1 [Blonanserin],IC50,SARS-CoV-2 [1]; [12],> 50 µM
same,IC50,SARS-CoV-2 [2],12 µM
same,inhibitory activity against M^pro,M^pro,showed inhibitory activities
same,CC50 at 24 h,[4],30.3 µM
same,CC50 at 24 h,[5],> 50 µM
same,Cmax,[7]; [13],~3 nM
CCN(CC)CCCC(C)Nc1ccnc2cc(Cl)ccc12 (stereo not drawn) [chloroquine],antiviral activity against SARS-CoV-2 in Vero cells,SARS-CoV-2 [10],showed antiviral activity
